{
  "source": "patent US7625411B2",
  "about": "“Insecticidally treated fabric having improved wash durability and insecticidal efficacy and method for its production” (Piedmont Chemical Industries I, LLC, priority 2004, dated 2009)",
  "assay": "Wash durability of permethrin-treated polyester fabric: accelerated laundering (AATCC Test Method 61-1996), solvent extraction, gas chromatography",
  "format": "physicochemical",
  "details": "without the binder system, just after the first wash",
  "description": "A polyester warp fleece weighing approximately 7.6 oz. per linear yard was used in this trial. Based on the weight of the fabric, calculating the percent wet pick-up the of fabric using production sqeeze pressures in the pad application, and the amount of permethrin target (1.25 g/m^2), the quantity of permethrin to be added to the pad bath was calculated using the above equation to be 1.68%. […] The fabric was padded and dried at a normal drying temperature for polyester (330 to 350° F.).\nAfter the application of permethrin to the fabric, samples of the treated fabric were extracted with toluene according to the procedure outlined below in order to determine the amount of permethrin loaded onto the fabric. A swatch of fabric measuring approximately two feet by two feet is cut from the treated roll of fabric. From that swatch, 3 smaller pieces measuring 10 cm by 10 cm, were cut and used for extraction of permethrin. Each 10 by 10 swatch was placed in a 250 ml flat-bottomed flask, and from 50-75 ml of an extraction solvent (e.g., 1,1,1-trichloroethane) was added thereto. The flask was then equipped with a reflux condenser and placed on a hot plate and allowed to reflux for 0.5-0.75 hr. Once the samples have finished refluxing and have cooled, 0.05mg/ml of dioctylphthalate (“DOP”) is added to the liquid fraction as an internal standard for gas chromatography (“gc”). […]",
  "data": [
    {"smiles": "CC1(C)C(C=C(Cl)Cl)C1C(=O)OCc1cccc(Oc2ccccc2)c1", "note": "(centres unmarked) [permethrin]", "values": [
      {"measurement": "permethrin remaining in the fabric", "value": "0.20-0.30 g/m^2"},
      {"measurement": "permethrin washed out of the fabric, of the initial amount loaded", "value": "60-80%"}
    ]}
  ]
}
